test system: HCV 1b genotype replicon; assay: HCV replicon assay (qRT-PCR or luciferase), genotype 1b; format: cell-based; details: Hepatitis C virus, Table 11, qRT-PCR or luciferase assay, read-out: Genotype-1b replicon EC50 Range
Source text: HCV replicon cell lines (kindly provided by R. Bartenschlager) isolated from colonies as described by Lohman et. al. (Lohman et al. (1999) Science 285: 110-113, expressly incorporated by reference in its entirety) and used for all experiments. The HCV replicon has the nucleic acid sequence set forth in EMBL Accession No.: AJ242651, the coding sequence of which is from nucleotides 1801 to 8406.
The coding sequence of the published HCV replicon was synthesized and subsequently assembled in a modified plasmid pBR322 (Promega, Madison, Wis.) using standard molecular biology techniques. One replicon cell line (“SGR 11-7”) stably expresses HCV replicon RNA which consists of (i) the HCV 5′UTR fused to the first 12 amino acids of the capsid protein, (ii) the neomycin phosphotransferase gene (neo), (iii) the IRES from encephalomyocarditis virus (EMCV), and (iv) HCV […] to NSSB genes and the HCV 3′UTR. Another replicon cell line (“Huh-luc/neo-ET”) described by Vrolijk et. al. (Vrolijk et. al. (2003) Journal of Virological Methods 110:201-209, expressly incorporated by reference in its entirety) stably expresses HCV replicon RNA which consists of (i) the HCV 5′UTR fused to the first 12 amino acids of the capsid protein, (ii) the firefly luciferase reporter gene, (iii) the ubiquitin gene, (iv) the neomycin phosphotransferase gene (neo), (v) the IRES from encephalomyocarditis virus (EMCV), and (vi) HCV NS3 to NS5B genes that harbor cell culture adaptive mutations (E1202G, T1280I, K1846T) and the HCV 3′UTR.
These cell lines were maintained at 37° C., 5% CO2, 100% relative humidity in DMEM (Cat#11965-084, Invitrogen), with 10% fetal calf serum (“FCS”, Invitrogen), 1% non-essential amino acids (Invitrogen), 1% of Glutamax (Invitrogen), 1% of 100× penicillin/streptomycin (Cat#15140-122, Invitrogen) and Geneticin (Cat#10131-027, Invitrogen) at 0.75 mg/ml or 0.5 mg/ml for 11-7 and Huh-luc/neo-ET cells, respectively.
EC50 values of single agent compounds and combinations were determined by HCV RNA detection using quantitative RT-PCR, according to the manufacturer's instructions, with a TAQMAN® One-Step RT-PCR Master Mix Reagents Kit (Cat#AB 4309169, Applied Biosystems) on an ABI Model 7500 thermocycler. The TaqMan primers used for detecting and quantifying HCV RNA were obtained from Integrated DNA Technologies. HCV RNA was normalized to GAPDH RNA levels in drug-treated cells, which is detected and quantified using the Human GAPDH Endogenous Control Mix (Applied Biosystems, AB 4310884E). Total cellular RNA is purified from 96-well plates using the RNAqueous 96 kit (Ambion, Cat# AM1812). Chemical agent cytotoxicity is evaluated using an MTS assay according to the manufacturer's directions (Promega).
Since clinical drug resistance often develops in viral infections following single agent therapies, there is a need to assess the additive, antagonistic, or synergistic properties of combination therapies. We used the HCV replicon system to assess the potential use of the compound of the present invention or in combination therapies with Interferon alpha, cyclosporine analogs and inhibitors targeting other HCV proteins. The acute effects of a single or combinations of drugs are studied in the “Huh-luc/neo-ET” replicon with each chemical agent titrated in an X or Y direction in a 6 point two-fold dilution curve centered around the EC50 of each drug. Briefly, replicon cells are seeded at 7,000 cells per well in 90 ul DMEM (without phenol red, Invitrogen Cat.#31053-036) per well with 10% FCS, 1% non-essential amino acids, 1% of Glutamax and 1% of 100× penicillin/streptomycin and incubated overnight at 37° C., 5% CO2, 100% relative humidity. […]

| Compound | EC50 |
| --- | --- |
| COC(=O)N[C@H](C(=O)N1CCC[C@H]1c1ncc(-c2ccc(C#Cc3ccc4nc([C@@H]5C[C@H](Oc6ccccc6)CN5C(=O)[C@@H](NC(=O)OC)C(C)C)[nH]c4c3)cc2)[nH]1)C(C)C [Example 538] | < 1 nM |
| COC(=O)N[C@H](C(=O)N1CCC[C@H]1c1nc(-c2ccc3cc(/C=C/c4ccc5[nH]c([C@@H]6CCCN6C(=O)[C@@H](NC(=O)OC)C(C)C)nc5c4)ccc3c2)c[nH]1)C(C)C [Example 477] | < 1 nM |
| COC(=O)N[C@H](C(=O)N1CCC[C@H]1c1nc(-c2ccc(C#Cc3ccc4[nH]c([C@@H]5CCCN5C(=O)[C@H](NC(=O)OC)c5ccccc5)nc4c3)cc2)c[nH]1)C(C)C [Example 504] | < 1 nM |
| COC(=O)N[C@@H](C(=O)N1CCC[C@H]1c1cc(-c2ccc(CCc3ccc4[nH]c([C@@H]5CCCN5C(=O)[C@H](NC(=O)OC)c5ccccc5)nc4c3)cc2)n[nH]1)c1ccccc1 [Example 446] | < 1 nM |
| COC(=O)N[C@H](C(=O)N1CCC[C@H]1c1ncc(-c2ccc(C#Cc3ccc4nc([C@@H]5CCCN5C(=O)[C@@H](NC(=O)OC)C5CC5)[nH]c4c3)cc2)[nH]1)C(C)C [Example 528] | < 1 nM |
| COC(=O)N[C@@H](C(=O)N1CCC[C@H]1c1cc(-c2ccc(C#Cc3ccc4[nH]c([C@@H]5CCCN5C(=O)[C@H](NC(=O)OC)c5ccccc5)nc4c3)cc2)n[nH]1)c1ccccc1 [Example 445] | < 1 nM |
| COC(=O)N[C@@H](C(=O)N1CCC[C@H]1c1nc(-c2ccc(C#Cc3ccc4[nH]c([C@@H]5CCCN5C(=O)[C@H](NC(=O)OC)c5ccccc5)nc4c3)cc2)c[nH]1)c1ccccc1 [Example 2-1] | < 1 nM |
| COC(=O)N[C@H](C(=O)N1CCC[C@H]1c1ncc(-c2ccc(C#Cc3ccc4nc([C@]5(C)CCCN5C(=O)[C@@H](NC(=O)OC)C(C)C)[nH]c4c3)cc2)[nH]1)C(C)C [Example 539] | < 1 nM |
| COC(=O)N[C@H](C(=O)N1CCC[C@H]1c1ncc(-c2ccc(C#Cc3ccc4nc([C@@H]5C[C@@H](Oc6ccccc6)CN5C(=O)[C@@H](NC(=O)OC)C(C)C)[nH]c4c3)cc2)[nH]1)C(C)C [Example 537] | < 1 nM |
| COC(=O)N[C@H](C(=O)N1CCC[C@H]1c1nc(CCc2ccc(-c3ccc4[nH]c([C@@H]5CCCN5C(=O)[C@@H](NC(=O)OC)C(C)C)nc4c3)cc2)c[nH]1)C(C)C [Example 469] | < 1 nM |
| COC(=O)N[C@H](C(=O)N1CCC[C@H]1c1nc2cc(C#Cc3ccc(-c4c[nH]c([C@@H]5CCCN5C(=O)[C@@H](c5ccccc5)C(C)C)n4)cc3)ccc2[nH]1)C(C)C [Example 512] | < 1 nM |
| COC(=O)N[C@@H](C(=O)N1CCC[C@H]1c1nc(-c2ccc(/C=C/c3ccc4[nH]c([C@@H]5CCCN5C(=O)[C@H](NC(=O)OC)c5ccccc5)nc4c3)cc2)c[nH]1)c1ccccc1 [Example 357] | < 1 nM |
| COC(=O)N[C@H](C(=O)N1CCC[C@H]1c1nc(C#Cc2ccc(-c3ccc4[nH]c([C@@H]5CCCN5C(=O)[C@@H](NC(=O)OC)C(C)C)nc4c3)cc2)c[nH]1)C(C)C [Example 468] | < 1 nM |
| COC(=O)N[C@H](C(=O)N1CCC[C@H]1c1nc2cc(C#Cc3ccc(-c4c[nH]c([C@@H]5CCCN5C(=O)[C@H](NC(=O)OC)C(C)C)n4)cc3)ccc2[nH]1)C(C)C [Example 513] | < 1 nM |
| COC(=O)N[C@H](C(=O)N1CCC[C@H]1c1nc(-c2ccc(C#Cc3ccc4[nH]c([C@@H]5CCCN5C(=O)[C@@H](c5ccccc5)C(C)C)nc4c3)cc2)c[nH]1)C(C)C [Example 507] | < 1 nM |
| CC[C@H](C)[C@H](NC(=O)OC)C(=O)N1CCC[C@H]1c1ncc(-c2ccc(C#Cc3ccc4nc([C@@H]5CCCN5C(=O)[C@@H](NC(=O)OC)[C@@H](C)CC)[nH]c4c3)cc2)[nH]1 [Example 526] | < 1 nM |
| COC(=O)N[C@H](C(=O)N1C[C@H](O)C[C@H]1c1ncc(-c2ccc(C#Cc3ccc4nc([C@@H]5CCCN5C(=O)[C@@H](NC(=O)OC)C(C)C)[nH]c4c3)cc2)[nH]1)C(C)C [Example 535] | < 1 nM |
| COC(=O)N[C@H](C(=O)N1CC2(CC2)C[C@H]1c1nc(-c2ccc(C#Cc3ccc4[nH]c([C@@H]5CC6(CC6)CN5C(=O)[C@@H](NC(=O)OC)C(C)C)nc4c3)cc2)c[nH]1)C(C)C [Example 525] | < 1 nM |
| COC(=O)N[C@H](C(=O)N1CCC[C@H]1c1ncc(-c2ccc([C@H]3C[C@@H]3c3ccc4nc([C@@H]5CCCN5C(=O)[C@@H](NC(=O)OC)C(C)C)[nH]c4c3)cc2)[nH]1)C(C)C [Example 497-a] | < 1 nM |
| COC(=O)N[C@H](C(=O)N1CCC[C@H]1c1nc(-c2ccc(/C=C/c3ccc4[nH]c([C@@H]5CCCN5C(=O)[C@@H](NC(=O)OC)C(C)C)nc4c3)cc2)c[nH]1)C(C)C [Example 492] | < 1 nM |
| COC(=O)N[C@H](C(=O)N1CCC[C@H]1c1nc(-c2ccc(OCc3ccc4[nH]c([C@@H]5CCCN5C(=O)[C@@H](NC(=O)OC)C(C)C)nc4c3)cc2)c[nH]1)C(C)C [Example 451] | < 1 nM |
| COC(=O)N[C@H](C(=O)N1CCC[C@H]1c1nc(-c2ccc(C#Cc3cc4nc([C@@H]5CCCN5C(=O)[C@@H](NC(=O)OC)C(C)C)[nH]c4cc3Cl)cc2)c[nH]1)C(C)C [Example 485] | < 1 nM |
| COC(=O)N[C@H](C(=O)N1CCC[C@H]1c1nc(-c2ccc(CCc3ccc4[nH]c([C@@H]5CCCN5C(=O)[C@@H](NC(=O)OC)C(C)C)nc4c3)cc2)c[nH]1)C(C)C [Example 494] | < 1 nM |
| COC(=O)N[C@@H](C(=O)N1CCC[C@H]1c1ncc(-c2ccc(CCc3ccc4nc([C@@H]5CCCN5C(=O)[C@H](NC(=O)OC)c5ccccc5)[nH]c4c3)cc2)[nH]1)c1ccccc1 [Example 2-2] | < 1 nM |
| COC(=O)N[C@H](C(=O)N1CCC[C@H]1c1ncc(-c2ccc(C#Cc3ccc4nc([C@@H]5C[C@H]6C[C@H]6N5C(=O)[C@@H](NC(=O)OC)C(C)C)[nH]c4c3)cc2)[nH]1)C(C)C [Example 541] | < 1 nM |
| COC(=O)N[C@H](C(=O)N1CCC[C@H]1c1ncc(-c2ccc(CCCc3ccc4[nH]c([C@@H]5CCCN5C(=O)[C@@H](NC(=O)OC)C(C)C)nc4c3)cc2)[nH]1)C(C)C [Example 449] | < 1 nM |
| COC(=O)N[C@H](C(=O)N1CCC[C@H]1c1ncc(-c2ccc(C#Cc3ccc4nc([C@@H]5CCCN5C(=O)[C@@H](NC(=O)OC)C(C)(C)O)[nH]c4c3)cc2)[nH]1)C(C)C [Example 530] | < 1 nM |

same assay, conditions: Hepatitis C virus, Table 12, numeric values, read-out: 1b EC50

| Compound | EC50 |
| --- | --- |
| COC(=O)N[C@H](C(=O)N1CC2(CC2)C[C@H]1c1ncc(-c2ccc(C#Cc3ccc4nc([C@@H]5CC6(CC6)CN5C(=O)OC(C)(C)C)[nH]c4c3)cc2)[nH]1)C(C)C [Example 649] | 0.304 nM |
| COC(=O)N[C@H](C(=O)N1CCC[C@H]1c1ncc(-c2ccc(C#Cc3ccc4nc([C@@H]5C[C@]6(CC(C)=NO6)CN5C(=O)[C@@H](NC(=O)OC)C(C)C)[nH]c4c3)cc2)[nH]1)C(C)C [Example 554] | 0.028 nM |
| COC(=O)N[C@H](C(=O)N1CCC[C@H]1c1ncc(-c2ccc(C#Cc3ccc4nc([C@@H]5C[C@]6(CCCOC6)CN5C(=O)[C@@H](NC(=O)OC)C(C)C)[nH]c4c3)cc2)[nH]1)C(C)C [Example 570] | 0.008 nM |
| COC(=O)N[C@H](C(=O)N1CC2(CC2)C[C@H]1c1nc2cc(C#Cc3ccc(-c4coc([C@@H]5CC6(CC6)CN5C(=O)[C@@H](NC(=O)OC)C(C)C)n4)cc3)ccc2[nH]1)C(C)C [Example 577] | 0.16 nM |
| COC(=O)N[C@H](C(=O)N1CC2(CC2)C[C@H]1c1nc2cc(C#Cc3ccc(-c4cn(O)c([C@@H]5CC6(CC6)CN5C(=O)[C@@H](NC(=O)OC)C(C)C)n4)cc3)ccc2[nH]1)C(C)C [Example 571] | 0.013 nM |
